Results on seven molecules are retold here after PMC11191602, “A novel and selective fluorescent ligand for the study of adenosine A2B receptors” (Pharmacology Research & Perspectives, 2024).

Each structure is given as a SMILES string.

In assay [1] the target is T1, human NLuc‐A3R (Homo sapiens, UniProt P0DMS8).
T1 construct: expressed in transfected cells
T1 sequence (P0DMS8 1-318): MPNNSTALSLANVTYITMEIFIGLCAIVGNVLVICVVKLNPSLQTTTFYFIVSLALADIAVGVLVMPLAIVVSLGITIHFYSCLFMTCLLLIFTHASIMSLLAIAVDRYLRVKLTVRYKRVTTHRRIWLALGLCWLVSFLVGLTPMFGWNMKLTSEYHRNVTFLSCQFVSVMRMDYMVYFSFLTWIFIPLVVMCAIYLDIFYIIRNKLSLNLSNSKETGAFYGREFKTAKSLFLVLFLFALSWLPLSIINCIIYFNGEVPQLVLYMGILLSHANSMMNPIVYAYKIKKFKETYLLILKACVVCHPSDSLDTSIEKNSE
The assay can be described thus: NanoBRET saturation binding in stable HEK293G cell line expressing NLuc‐A3R. Particulars: non‐specific defined with 1 μM MRS‐1220; PSB603‐BY630 at concentrations up to 500 nM. How it is done:
(§1) Saturation and competition binding assays were performed as previously described.[36] Briefly, cells were seeded in 96‐well white clear‐bottomed Greiner plates pre‐treated with 10 μg/mL poly‐D‐lysine (Sigma‐Aldrich, Missouri USA) at a density of 30 000–35 000 cells per well in DMEM supplemented with 10% FBS. […] The NanoLuc substrate, furimazine (Promega Corporation, Wisconsin, USA), was then added to each well (1:400 dilution) and the plate was incubated for 10 min in the dark at 37°C. The resulting bioluminescence resonance energy transfer (BRET) was measured using a PHERAstar FS plate reader (BMG Labtech) at 37°C. For each well, filtered light emissions at 460 nm (80 nm bandpass) and >610 nm (longpass) for the BODIPY630/650 ligand were simultaneously measured. BRET ratios were calculated by dividing the 610 nm emission by the 460 nm emission. All conditions were performed in 2–6 replicates within each plate. For kinetic experiments, cells were preincubated for 10 min with 1:400 dilution of furimazine prior to addition of 200 nM PSB603‐BY630 and BRET ratios determined every 0.5 min. At 60 min, 10 μM MRS‐1706 was added and the ligand‐binding kinetics followed for a further 60 min.

Assay [2] deals with T2, endogenous A2BR (Homo sapiens, UniProt P29275).
T2 construct: HEK293G cells that express the cAMP biosensor Glosensor also endogenously express both A2BR and A2AR; host or cells: HEK293G
T2 sequence (P29275 1-332): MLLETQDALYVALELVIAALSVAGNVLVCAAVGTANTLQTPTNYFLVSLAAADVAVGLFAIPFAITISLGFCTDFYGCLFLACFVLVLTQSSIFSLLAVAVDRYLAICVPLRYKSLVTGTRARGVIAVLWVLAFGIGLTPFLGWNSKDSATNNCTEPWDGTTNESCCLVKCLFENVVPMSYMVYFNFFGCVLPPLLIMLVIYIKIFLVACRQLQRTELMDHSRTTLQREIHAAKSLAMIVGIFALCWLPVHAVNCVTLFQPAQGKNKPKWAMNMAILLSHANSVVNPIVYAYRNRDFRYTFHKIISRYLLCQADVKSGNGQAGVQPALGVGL
Kind of assay: cAMP GloSensor luminescence assay in HEK293G cells endogenously expressing A2BR. The format is cell-based. Particulars: agonist alone, n=5. How it is done:
(§2) The cAMP GloSensor™ luminescence assay was performed according to the manufacturer's instructions (Promega Corporation, Madison, WI, USA). Briefly, after 24 h incubation at 37°C and 5% CO2 after cell plating (40 000 cells/well in 100 μL), medium was aspirated from each well of the 96‐well plate. Cells were incubated in 50 μL HEPES buffered saline solution (HBSS; 2 mM sodium pyruvate, 145 mM NaCl, 10 mM D‐glucose, 5 mM KCl, 1 mM MgSO4.7H2O, 10 mM HEPES, 1.3 mM CaCl2, 1.5 mM NaHCO3 in double‐distilled water, pH 7.45) containing 3% GloSensor™ cAMP reagent at 37°C for 1.5 h. For agonist studies, an initial baseline luminescence read was made at time zero, the plate was then removed from the plate‐reader and a further 50 μL HBSS containing agonist (2× final concentration) or HBSS (vehicle control) added. Luminescence was measured on an open channel (gain of 3600) immediately after these additions, and then continuously over 60 min, reading each well once every minute, by a PHERAstar FSX microplate reader (BMG Labtech, Offenburg, Germany) at 37°C. Increases in luminescence are indicative of intracellular cAMP accumulation, thus the temporal changes in relative cytosolic cAMP concentration were measured upon agonist or vehicle addition. Antagonist action was determined following 30 min pre‐incubation of HBSS in the presence of 20 and 200 nM PSB603‐BY630 and read as above. All conditions were performed in triplicates within each plate.

Assay [3] deals with T3, NLuc‐A2BR (Homo sapiens, UniProt P29275).
T3 construct: expressed in transfected cells
T3 sequence (P29275 1-332): T2 sequence (P29275 1-332)
The assay can be described thus: cAMP GloSensor luminescence assay in HEK293G cells overexpressing NLuc‐A2BR. The format is cell-based. Particulars: agonist alone, n=5. The protocol: as §2

The target in assay [4] is T3, NLuc‐A2BR. The assay can be described thus: NanoBRET competition binding against 50 nM PSB603‐BY630 in HEK293G cells expressing NLuc‐A2BR. Particulars: for Ki: read-out: Appararent Log K i (converted). How it is done:
as §1, with “min.” for “min. At 60 min, 10 μM MRS‐1706 was added and the ligand‐binding kinetics followed for a further 60 min.”
The IC 50 values were then used to calculate the K i values using the Cheng‐Prussoff equation: Ki=IC50/1+L/KD where [L] is the concentration of PSB603‐BY630 in nM, and K D is the dissociation constant of that fluorescent ligand in nM.
Background: In BRET a luciferase serves as donor, and the signal depends on an acceptor being close.

Assay [5] deals with T3, NLuc‐A2BR. Kind of assay: NanoBRET imaging of PSB603‐BY630 binding to HEK293G cells expressing NLuc‐A2BR. Particulars: 100 nM PSB603‐BY630, co‐incubation with 10 μM MRS‐1706, 30 min. The protocol: Cells were seeded onto 35 mm Cellview 4‐quadrant culture dishes (Greiner Bio‐one), which have a 10 mm glass coverslip bottom, in DMEM supplemented with 10% FBS at a density of 100 000 cells per quadrant 2 days prior to experiment in total volume of 500 μL. On the day of the experiment medium was replaced with HBSS in the presence or absence of PSB603‐BY630 (100 nM) and/or MRS1706 (10 μM) and incubated for 30 min at 37°C before imaging. Bioluminescence and NanoBRET imaging were performed on an Olympus LuminoView 200 microscope with a 60× NA1.42 oil immersion objective with a 0.5× tube lens, following addition of furimazine (1:800 dilution) (Promega). Images were captured by a C9100‐23B IMAGE EMX2 camera (Hamamatsu, Japan) with gain set at 200 for all channels. Filtered bioluminescence was captured using a 438/24 bandpass filter, BRET in the presence of PSB603‐BY630 was captured using a 650/50 nm bandpass filter. For the NLuc‐A2BR stable cell line exposure times were set at 10 s for filtered bioluminescence and 75 sec for BRET. Raw intensity values were determined for three regions of interest per experiment per condition and the BRET ratio calculated by dividing the raw intensity recorded from the BRET capture by the filtered bioluminescence capture. Corrected BRET ratios were determined by subtracting the BRET ratio determined from a control quadrant (HBSS alone). […]

The target of assay [6] is human A2BR. More on the design: method as in PMID 23286920. Particulars: membranes from CHO cells expressing the human A2BR ref 13; cited from earlier work.

Turning to `COc1ccc(-n2nc3c(NC(=O)CCC(=O)NCCOCCOCCNC(=O)CCCCCNC(=O)COc4ccc(/C=C/C5=[N+]6C(=Cc7ccc(-c8cccs8)n7[B-]6(F)F)C=C5)cc4)nc4ccccc4n3c2=O)cc1` [AV039], the “specific binding to NLuc‐A3R” value in assay [1] is listed as “high affinity specific binding”.
As to `N#Cc1c(N)nc(SCC(N)=O)c(C#N)c1-c1ccc(OCC2CC2)cc1` [BY 60–6583, 2‐[[6‐Amino‐3,5‐dicyano‐4‐[4‐(cyclopropylmethoxy)phenyl]‐2‐pyridinyl]thio]‐acetamide], the Emax worked out at 104 ± 3.09% in assay [2] (HEK293G, read-out: Endogenous HEK293G EMAX (% of response to 3 μM BAY‐60‐6583)) and 100 ± 1.29% in assay [3] (HEK293G, read-out: HEK293G A2BAR EMAX (% of response to 0.3 μM BAY‐60‐6583)). The EC50 in assay [2] (read-out: Endogenous HEK293G Log EC50 (converted)) is 129 nM; in assay [3] (read-out: HEK293G A2BAR Log EC50 (converted)), 18.6 nM.
As to `O=C(Cc1ccccc1)Nc1nc2ccc(Cl)cc2c2nc(-c3ccco3)nn12` [MRS1220, N‐[9‐Chloro‐2‐(2‐furanyl)[1,2,4]‐triazolo[1,5‐c]quinazolin‐5‐yl]benzene acetamide], the “Appararent Log K i” value in assay [4] (calculated from IC50 (Cheng‐Prussoff) assuming competition with 50 nM PSB603‐BY630 for the same site, mean ± S.E.M., n=5) is on record as −6.40 ± 0.19. Besides, in assay [4] (inhibition of the binding of 50 nM PSB603‐BY630, mean ± S.E.M., n=5), the “Log IC50” value is −5.82 ± 0.19.
Regarding `CCCn1c(=O)c2[nH]c(-c3ccc(OCC(=O)Nc4ccc(C(C)=O)cc4)cc3)nc2n(CCC)c1=O` [MRS1706, N‐(4‐Acetylphenyl)‐2‐[4‐(2,3,6,7‐tetrahydro‐2,6‐dioxo‐1,3‐dipropyl‐1H‐purin‐8‐yl)phenoxy]acetamide], the “effect on PSB603‐BY630 binding to cell surface receptors (BRET imaging)” value in assay [5] is “completely prevented”. Further, in assay [4], the IC50 is 36.3 nM and the Ki is 9.77 nM.
On to `COc1ccc(CCCn2ncc3c2nc(N)n2nc(-c4ccco4)nc32)cc1` [SCH442416, 2‐(2‐Furanyl)‐7‐[3‐(4‐methoxyphenyl)propyl]‐7H‐pyrazolo[4,3‐e][1,2,4]triazolo[1,5‐c]pyrimidin‐5‐amine], for which, in assay [4], the IC50 was 9550 nM and the Ki is 2570 nM.
Regarding `O[C@H]1CC[C@H](Nc2nc(-c3ccccc3)nc3[nH]ccc23)CC1` [SLV320, trans‐4‐[(2‐Phenyl‐7H‐pyrrolo[2,3‐d]pyrimidin‐4‐yl)amino]cyclohexanol], in assay [4], the IC50 was 6460 nM and the Ki is 1740 nM.
In the case of `CCCn1c(=O)[nH]c2nc(-c3ccc(S(=O)(=O)N4CCN(c5ccc(Cl)cc5)CC4)cc3)[nH]c2c1=O` [[^3H]‐PSB603], in assay [6], the Kd was 3.6 nM.

By Emax is commonly meant the greatest response seen or fitted, relative to the assay's reference. As usually defined, the EC50 is the midpoint of the concentration-response curve. As usually defined, the IC50 is the point on the concentration scale where inhibition reaches its midpoint. Read a high IC50 as weaker potency. Usually Kd stands for the constant that tells how readily two partners part at equilibrium.
